From paper PMC12656268, “Venom Peptides Across Asian and American Tarantulas Utilize Dual Pharmacology to Target Activation and Fast Inactivation of Voltage-Gated Sodium Channels” (Toxins, 2025)
Entries after “also recorded” stand apart in the source; their conditions may differ. Positions of bridges follow the written chain, without caps; N, C: chain ends. Residues, ends and D or L forms follow the SMILES beside them.

How the values were obtained:
[1] = biological target: hNaV1.6 (Homo sapiens, UniProt Q9UQD0); assay: hNaV1.6 peak current inhibition, automated whole-cell patch clamp (QPatch 16X); format: cell-based; settings: for IC50: HEK293 + β1, holding −80 mV, 20 ms step to 0 mV from −120 mV 200 ms prepulse, 5 min incubation, mean ± SEM, 3 to 9 independent experiments, read-out: IC50, inhibition of peak current, NaV1.6
Procedure: (§1) Unless otherwise specified, all cell culture reagents were obtained from Life Technologies (Carlsbad, CA, USA). The human neuroblastoma cell line SH-SY5Y (ATCC CRL-2266; Manassas, VA, USA) was maintained in RPMI medium supplemented with 15% fetal bovine serum (FBS) and 2 mM L-glutamine. HEK293 cells stably expressing human NaV channel isoforms together with the β1 auxiliary subunit (SB Drug Discovery, Glasgow, UK) were propagated in Minimal Essential Medium (MEM; Sigma-Aldrich, St. Louis, MO, USA) containing 10% FBS, 100 U/mL penicillin, 100 µg/mL streptomycin, 2 mM L-glutamine, and selective antibiotics (blasticidin, geneticin, and zeocin) at concentrations recommended by the supplier. […]
(§2) Sodium channel currents were recorded from HEK293 cells expressing human NaV isoforms together with the β1 auxiliary subunit (SB Drug Discovery, Glasgow, UK) using the QPatch 16X automated whole-cell patch-clamp platform (Sophion Bioscience A/S, Ballerup, Denmark). […] For determining the potency of Oa1a peptides to inhibit peak current, the maximum peak current within the 20 ms at 0 mV was measured. For determining the potency of Oa1a-NH2 to slow fast inactivation, peak current values were measured at 20 ms of the 0 mV depolarization step. […]
(§3) For calcium influx experiments, bioactivity comparisons between venom fractions and controls were based on the difference between the maximal and minimal fluorescence intensity values obtained from single-replicate assays. […] Reversibility and dissociation kinetics were analyzed by fitting data with a single-phase exponential decay model, while voltage-dependence of steady-state activation and inactivation parameters were derived from Boltzmann sigmoid fits of normalized conductance (G/Gmax) or current (I/Imax) values to determine the half-activation or half-inactivation voltages (V50). Data are expressed as mean ± SEM, where n represents the number of individual cells analyzed.

[2] = tested on: CaV3.2; assay: hCaV3.2 (T-type) current, automated whole-cell patch clamp (QPatch 16X); format: cell-based, human; settings: up to 10 μM tested; holding −90 mV, 60 ms steps to −30 mV from −120 mV 60 ms conditioning pulse; 5 min incubation; Figure S1
Procedure: Unless otherwise specified, all cell culture reagents were obtained from Life Technologies (Carlsbad, CA, USA). The human neuroblastoma cell line SH-SY5Y (ATCC CRL-2266; Manassas, VA, USA) was maintained in RPMI medium supplemented with 15% fetal bovine serum (FBS) and 2 mM L-glutamine. HEK293 cells stably expressing human NaV channel isoforms together with the β1 auxiliary subunit (SB Drug Discovery, Glasgow, UK) were propagated in Minimal Essential Medium (MEM; Sigma-Aldrich, St. Louis, MO, USA) containing 10% FBS, 100 U/mL penicillin, 100 µg/mL streptomycin, 2 mM L-glutamine, and selective antibiotics (blasticidin, geneticin, and zeocin) at concentrations recommended by the supplier. HEK293T cells expressing the human CaV3.2 channel (a generous gift from Prof. Emmanuel Bourinet, Institut de Génomique Fonctionnelle, Université de Montpellier, France, and Prof. Edward Perez-Reyes, University of Virginia School of Medicine, USA) were grown in Dulbecco’s MEM supplemented with 10% FBS, 100 U/mL penicillin, 100 µg/mL streptomycin, and 750 µg/mL geneticin.
CaV3.2 channel currents were recorded from HEK293 cells expressing hCaV3.2 using an automated QPatch 16X platform (Sophion Bioscience A/S). […]

[3] = biological target: hNaV1.1 (Homo sapiens, UniProt P35498); assay: hNaV1.1 peak current inhibition, automated whole-cell patch clamp (QPatch 16X); format: cell-based; settings: for IC50: HEK293 + β1, holding −80 mV, 20 ms step to 0 mV from −120 mV 200 ms prepulse, 5 min incubation, mean ± SEM, 3 to 9 independent experiments, read-out: IC50, inhibition of peak current, NaV1.1
Procedure: as §1, §2, §3

[4] = biological target: hNaV1.5 (Homo sapiens, UniProt Q14524); assay: hNaV1.5 peak current inhibition, automated whole-cell patch clamp (QPatch 16X); format: cell-based; settings: for IC50: HEK293 + β1, holding −80 mV, 20 ms step to 0 mV from −120 mV 200 ms prepulse, 5 min incubation, mean ± SEM, 3 to 9 independent experiments, read-out: IC50, inhibition of peak current, NaV1.5
Procedure: as §1, §2, §3

[5] = tested on: NaV1.7; assay: Voltage dependence of steady-state inactivation and activation, NaV1.7; format: cell-based, human; settings: for V50 of steady-state activation in presence of peptide, NaV1.7: control V50 = −28 ± 0.5 mV (sOa1a-NH2 experiment), −25 ± 0.7 mV (sOa1a-OH experiment); for V50 of steady-state activation in presence of peptide, NaV1.7 / V50 of steady-state inactivation in presence of peptide, NaV1.7: 5 min at IC50 concentration, mean ± SEM, 3 to 5 repeats; for V50 of steady-state inactivation in presence of peptide, NaV1.7: control V50 = −66 ± 0.7 mV (sOa1a-NH2 experiment), −66 ± 0.3 mV (sOa1a-OH experiment); for Effect on current–voltage relationships (activation, steady-state inactivation), NaV1.7: peptide at IC50 concentration
Procedure: The voltage dependence of steady-state activation was assessed by recording sodium currents evoked by depolarizing voltage steps ranging from −110 mV to +80 mV in 5 mV increments. Peak conductance (GNa) was derived using the equation G = I/(V − Vrev), where I denotes the measured current, V the applied membrane potential, and Vrev the sodium reversal potential. To evaluate the voltage dependence of steady-state fast inactivation, a two-pulse protocol was used. Cells were conditioned with 500 ms pre-pulses at potentials between −130 mV and −10 mV (10 mV increments), followed by a 20 ms test depolarization to 0 mV to elicit sodium currents. The steady-state fast inactivation currents were plotted as I/Imax, where I = current value and Imax = highest current value within the experiment. The voltage-dependence of steady-state activation and inactivation were determined either in the absence of peptide or following 5 min exposure to peptide at the respective IC50 concentration at the NaV subtype analyzed to streamline the investigation using an effective single concentration as previously described by us.
For calcium influx experiments, bioactivity comparisons between venom fractions and controls were based on the difference between the maximal and minimal fluorescence intensity values obtained from single-replicate assays. Electrophysiological data analysis was conducted using GraphPad Prism (version 8; GraphPad Software, San Diego, CA, USA). Nonlinear regression was applied to fit the concentration–response relationships using a variable Hill slope: log(inhibitor) versus normalized response for determining IC50 values, and log(agonist) versus normalized response for EC50 calculations. Reversibility and dissociation kinetics were analyzed by fitting data with a single-phase exponential decay model, while voltage-dependence of steady-state activation and inactivation parameters were derived from Boltzmann sigmoid fits of normalized conductance (G/Gmax) or current (I/Imax) values to determine the half-activation or half-inactivation voltages (V50). Data are expressed as mean ± SEM, where n represents the number of individual cells analyzed.

hNaV1.5, sequence (Q14524 whole entry): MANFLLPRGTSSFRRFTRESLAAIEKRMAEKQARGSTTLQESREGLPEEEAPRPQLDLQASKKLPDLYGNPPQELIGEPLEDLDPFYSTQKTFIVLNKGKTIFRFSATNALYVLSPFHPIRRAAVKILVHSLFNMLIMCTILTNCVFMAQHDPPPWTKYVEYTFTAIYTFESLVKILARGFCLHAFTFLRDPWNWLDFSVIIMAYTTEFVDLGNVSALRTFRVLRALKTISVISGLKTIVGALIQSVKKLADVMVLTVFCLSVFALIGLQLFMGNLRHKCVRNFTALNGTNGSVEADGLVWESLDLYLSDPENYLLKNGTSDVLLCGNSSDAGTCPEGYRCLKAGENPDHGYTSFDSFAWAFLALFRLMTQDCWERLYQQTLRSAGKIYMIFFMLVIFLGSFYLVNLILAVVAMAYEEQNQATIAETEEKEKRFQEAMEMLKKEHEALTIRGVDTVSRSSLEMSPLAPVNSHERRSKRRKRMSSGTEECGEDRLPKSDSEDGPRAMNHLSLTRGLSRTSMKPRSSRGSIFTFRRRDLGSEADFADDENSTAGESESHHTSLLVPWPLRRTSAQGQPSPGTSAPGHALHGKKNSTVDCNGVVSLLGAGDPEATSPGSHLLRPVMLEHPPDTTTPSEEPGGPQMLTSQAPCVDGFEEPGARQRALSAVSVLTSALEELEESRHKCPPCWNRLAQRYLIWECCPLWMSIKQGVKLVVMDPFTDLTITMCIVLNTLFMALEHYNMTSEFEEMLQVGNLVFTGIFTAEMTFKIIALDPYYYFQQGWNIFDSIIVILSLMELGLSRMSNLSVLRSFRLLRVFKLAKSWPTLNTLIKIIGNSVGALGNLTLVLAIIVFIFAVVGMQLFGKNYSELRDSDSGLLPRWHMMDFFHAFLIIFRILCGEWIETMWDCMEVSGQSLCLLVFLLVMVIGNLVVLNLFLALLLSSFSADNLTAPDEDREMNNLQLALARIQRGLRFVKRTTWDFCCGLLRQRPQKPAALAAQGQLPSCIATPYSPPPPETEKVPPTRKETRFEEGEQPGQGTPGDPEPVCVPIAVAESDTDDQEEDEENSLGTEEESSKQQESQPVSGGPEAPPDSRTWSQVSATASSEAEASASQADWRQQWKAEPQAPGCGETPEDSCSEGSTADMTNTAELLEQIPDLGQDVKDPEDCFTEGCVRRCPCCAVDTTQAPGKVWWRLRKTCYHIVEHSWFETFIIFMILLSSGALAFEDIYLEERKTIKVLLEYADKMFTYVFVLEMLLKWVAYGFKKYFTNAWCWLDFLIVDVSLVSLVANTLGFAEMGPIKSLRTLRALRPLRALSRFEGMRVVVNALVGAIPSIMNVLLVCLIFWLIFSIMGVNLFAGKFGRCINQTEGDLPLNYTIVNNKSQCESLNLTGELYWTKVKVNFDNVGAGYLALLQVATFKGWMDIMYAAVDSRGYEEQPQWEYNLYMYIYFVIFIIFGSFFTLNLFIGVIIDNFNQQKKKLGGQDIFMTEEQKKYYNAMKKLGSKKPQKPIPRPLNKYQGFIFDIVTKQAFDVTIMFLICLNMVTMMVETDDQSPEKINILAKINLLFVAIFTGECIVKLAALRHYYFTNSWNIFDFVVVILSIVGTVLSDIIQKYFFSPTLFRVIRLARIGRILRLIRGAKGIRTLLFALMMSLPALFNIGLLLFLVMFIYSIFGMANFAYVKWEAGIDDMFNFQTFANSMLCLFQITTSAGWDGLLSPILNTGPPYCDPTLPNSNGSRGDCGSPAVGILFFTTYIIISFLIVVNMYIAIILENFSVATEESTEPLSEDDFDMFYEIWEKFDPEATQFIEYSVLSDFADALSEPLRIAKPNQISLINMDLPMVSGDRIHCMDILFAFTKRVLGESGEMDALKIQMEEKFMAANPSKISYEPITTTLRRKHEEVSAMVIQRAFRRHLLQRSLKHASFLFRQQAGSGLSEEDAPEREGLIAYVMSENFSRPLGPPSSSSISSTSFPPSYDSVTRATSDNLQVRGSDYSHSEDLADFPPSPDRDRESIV
hNaV1.6, sequence (Q9UQD0 whole entry, canonical isoform): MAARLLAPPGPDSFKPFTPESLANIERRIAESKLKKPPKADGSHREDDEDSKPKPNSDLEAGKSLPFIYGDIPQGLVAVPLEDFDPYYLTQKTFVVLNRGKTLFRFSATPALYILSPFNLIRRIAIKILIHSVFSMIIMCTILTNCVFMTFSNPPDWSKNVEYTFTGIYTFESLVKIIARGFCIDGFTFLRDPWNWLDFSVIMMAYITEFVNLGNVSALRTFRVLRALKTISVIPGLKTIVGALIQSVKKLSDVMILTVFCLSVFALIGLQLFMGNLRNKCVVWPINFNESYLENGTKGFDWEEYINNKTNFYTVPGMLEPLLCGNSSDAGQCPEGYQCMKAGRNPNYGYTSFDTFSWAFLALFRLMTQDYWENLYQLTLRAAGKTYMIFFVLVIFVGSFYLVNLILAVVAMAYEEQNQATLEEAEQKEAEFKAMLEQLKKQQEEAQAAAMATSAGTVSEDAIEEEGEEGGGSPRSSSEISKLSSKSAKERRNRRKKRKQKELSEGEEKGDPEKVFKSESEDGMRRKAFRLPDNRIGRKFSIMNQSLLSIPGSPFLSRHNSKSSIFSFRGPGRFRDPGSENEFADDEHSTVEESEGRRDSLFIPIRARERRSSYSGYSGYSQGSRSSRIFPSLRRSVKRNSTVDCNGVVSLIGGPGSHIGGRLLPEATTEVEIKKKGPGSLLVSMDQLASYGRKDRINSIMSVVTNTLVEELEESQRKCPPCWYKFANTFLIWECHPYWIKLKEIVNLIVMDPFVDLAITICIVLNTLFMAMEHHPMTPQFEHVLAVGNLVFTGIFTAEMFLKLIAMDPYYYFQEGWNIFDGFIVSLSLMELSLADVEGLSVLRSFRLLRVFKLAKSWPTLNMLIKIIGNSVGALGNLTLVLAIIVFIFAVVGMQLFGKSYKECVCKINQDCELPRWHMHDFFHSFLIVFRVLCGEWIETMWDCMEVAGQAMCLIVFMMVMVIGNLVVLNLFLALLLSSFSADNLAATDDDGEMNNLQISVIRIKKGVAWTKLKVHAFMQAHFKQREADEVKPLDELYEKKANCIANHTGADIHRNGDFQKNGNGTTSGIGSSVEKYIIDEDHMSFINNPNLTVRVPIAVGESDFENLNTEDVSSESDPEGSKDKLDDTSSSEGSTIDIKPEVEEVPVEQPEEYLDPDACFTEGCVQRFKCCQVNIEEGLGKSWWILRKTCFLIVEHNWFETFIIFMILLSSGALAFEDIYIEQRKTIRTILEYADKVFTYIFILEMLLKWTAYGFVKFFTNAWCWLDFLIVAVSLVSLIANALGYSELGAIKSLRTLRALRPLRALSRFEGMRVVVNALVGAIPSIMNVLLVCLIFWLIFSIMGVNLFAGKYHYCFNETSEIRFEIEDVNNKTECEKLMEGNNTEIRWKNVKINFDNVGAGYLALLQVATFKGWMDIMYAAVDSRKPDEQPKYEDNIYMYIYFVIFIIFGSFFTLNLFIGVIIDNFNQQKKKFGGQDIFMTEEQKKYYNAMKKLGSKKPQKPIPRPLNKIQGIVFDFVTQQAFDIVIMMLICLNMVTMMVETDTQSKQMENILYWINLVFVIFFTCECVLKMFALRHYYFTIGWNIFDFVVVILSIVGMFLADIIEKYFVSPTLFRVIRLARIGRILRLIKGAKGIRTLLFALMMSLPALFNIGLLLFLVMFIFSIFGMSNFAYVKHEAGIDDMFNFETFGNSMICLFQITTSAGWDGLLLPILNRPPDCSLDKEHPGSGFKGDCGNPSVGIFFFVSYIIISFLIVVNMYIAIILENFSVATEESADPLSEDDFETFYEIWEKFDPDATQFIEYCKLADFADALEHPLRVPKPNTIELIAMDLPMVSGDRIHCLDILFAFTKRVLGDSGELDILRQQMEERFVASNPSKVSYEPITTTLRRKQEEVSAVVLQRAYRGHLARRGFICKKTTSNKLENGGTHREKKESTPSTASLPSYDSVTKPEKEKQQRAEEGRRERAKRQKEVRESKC
hNaV1.6, sequence (Q07699 19-218, further chain): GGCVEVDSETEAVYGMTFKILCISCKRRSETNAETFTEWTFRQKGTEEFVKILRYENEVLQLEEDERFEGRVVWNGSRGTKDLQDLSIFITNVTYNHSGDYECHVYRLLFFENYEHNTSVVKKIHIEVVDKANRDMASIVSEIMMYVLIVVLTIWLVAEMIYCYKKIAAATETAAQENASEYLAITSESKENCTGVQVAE

## CC(C)C[C@@H]1NC(=O)[C@H](Cc2ccccc2)NC(=O)[C@H](Cc2ccc(O)cc2)NC(=O)[C@H](CCCNC(=N)N)NC(=O)[C@@H](NC(=O)[C@@H](N)CCC(=O)O)CSSC[C@@H]2NC(=O)[C@@H]3CSSC[C@@H](C(=O)N[C@H](C(=O)N[C@@H](Cc4c[nH]c5ccccc45)C(=O)N[C@@H](CC(=O)O)C(=O)N[C@@H](Cc4c[nH]c5ccccc45)C(=O)N[C@H](C(=O)N[C@@H](Cc4ccccc4)C(N)=O)[C@@H](C)O)C(C)C)NC(=O)[C@H](Cc4c[nH]c5ccccc45)NC(=O)[C@H](CCC(N)=O)NC(=O)[C@H](Cc4c[nH]cn4)NC(=O)[C@H](CCCCN)NC(=O)[C@H](CC(N)=O)NC(=O)[C@H](Cc4c[nH]cn4)NC(=O)[C@H](CSSC[C@H](NC(=O)CNC(=O)CNC1=O)C(=O)N[C@@H](CO)C(=O)N[C@@H](CCC(N)=O)C(=O)NCC(=O)N[C@@H](CCC(=O)O)C(=O)N[C@@H](CCCCN)C(=O)N3)NC(=O)[C@H](C(C)C)NC(=O)[C@H](CC(C)C)NC(=O)[C@H](Cc1c[nH]cn1)NC(=O)[C@H](CCC(=O)O)NC2=O [sOa1a-NH2] (H-ECRYFLGGCSQGEKCCEHLVCHNKHQWCVWDWTF-NH2; disulfide 2-16, 9-21, 15-28; N-terminus assumed)
[1]
  IC50: 0.223 ± 0.018 µM
[2]
  Activity on CaV3.2: did not observe activity
[3]
  IC50: 0.017 ± 0.001 µM
[4]
  IC50: 0.192 ± 0.004 µM
[5]
  V50 of steady-state activation in presence of peptide, NaV1.7: −30 mV
  V50 of steady-state inactivation in presence of peptide, NaV1.7: −69 mV
  Effect on current–voltage relationships (activation, steady-state inactivation), NaV1.7: remained nearly unaltered; also recorded: did not alter the voltage of activation or the steady-state inactivation

## CC(C)C[C@@H]1NC(=O)[C@H](Cc2ccccc2)NC(=O)[C@H](Cc2ccc(O)cc2)NC(=O)[C@H](CCCNC(=N)N)NC(=O)[C@@H](NC(=O)[C@@H](N)CCC(=O)O)CSSC[C@@H]2NC(=O)[C@@H]3CSSC[C@@H](C(=O)N[C@H](C(=O)N[C@@H](Cc4c[nH]c5ccccc45)C(=O)N[C@@H](CC(=O)O)C(=O)N[C@@H](Cc4c[nH]c5ccccc45)C(=O)N[C@H](C(=O)N[C@@H](Cc4ccccc4)C(=O)O)[C@@H](C)O)C(C)C)NC(=O)[C@H](Cc4c[nH]c5ccccc45)NC(=O)[C@H](CCC(N)=O)NC(=O)[C@H](Cc4c[nH]cn4)NC(=O)[C@H](CCCCN)NC(=O)[C@H](CC(N)=O)NC(=O)[C@H](Cc4c[nH]cn4)NC(=O)[C@H](CSSC[C@H](NC(=O)CNC(=O)CNC1=O)C(=O)N[C@@H](CO)C(=O)N[C@@H](CCC(N)=O)C(=O)NCC(=O)N[C@@H](CCC(=O)O)C(=O)N[C@@H](CCCCN)C(=O)N3)NC(=O)[C@H](C(C)C)NC(=O)[C@H](CC(C)C)NC(=O)[C@H](Cc1c[nH]cn1)NC(=O)[C@H](CCC(=O)O)NC2=O [sOa1a-OH] (H-ECRYFLGGCSQGEKCCEHLVCHNKHQWCVWDWTF-OH; disulfide 2-16, 9-21, 15-28; N-terminus assumed)
[1]
  IC50: 0.568 ± 0.038 µM
[1]; ratio of IC50 values
  Ratio OH/NH2 (IC50 sOa1a-OH / IC50 sOa1a-NH2), NaV1.6: 2.6
[2]
  Activity on CaV3.2: did not observe activity
[3]
  IC50: 0.274 ± 0.018 µM
[3]; ratio of IC50 values
  Ratio OH/NH2 (IC50 sOa1a-OH / IC50 sOa1a-NH2), NaV1.1: 16
[4]
  IC50: 1.27 ± 0.022 µM
[4]; ratio of IC50 values
  Ratio OH/NH2 (IC50 sOa1a-OH / IC50 sOa1a-NH2), NaV1.5: 6.6
[5]
  V50 of steady-state activation in presence of peptide, NaV1.7: −22 mV
  V50 of steady-state inactivation in presence of peptide, NaV1.7: −71 mV
  Effect on current–voltage relationships (activation, steady-state inactivation), NaV1.7: remained nearly unaltered
